The values that follow come from patent US6380194B1 (Janssen Pharmaceutica N.V., priority 1996, dated 2002).

A value given as a limit tells only on which side of the number the result lay.

What is called IC50 is the concentration needed to halve the response being measured. In general, CC50 refers to the concentration giving 50% cytotoxicity. High values mean better tolerance by the cells, low ones harm at low concentration.

One data set concerns HIV-1. Briefly: Inhibition of HIV-induced cytopathic effect in MT-4 cells (MTT). Type of data set: cell-based. The settings on record: dose achieving 50% protection of HIV-infected MT-4 cells, mean, number of experiments in brackets. As to the method:
(§1) A rapid, sensitive and automated assay procedure was used for the in vitro evaluation of anti-HIV agents. An […] T4-cell line, MT-4, which was previously shown (Koyanagi et al., Int. J. Cancer, 36, 445-451, 1985) to be highly susceptible to and permissive for HIV infection, served as the target cell line. Inhibition of the HIV-induced cytopathic effect was used as the end point. The viability of both HIV- and mock-infected cells was assessed spectrophotometrically via the in situ reduction of 3-(4,5-dimethylthiazol-2-yl)-2,5-diphenyltetrazolium bromide (MTT). The 50% cytotoxic concentration (CC50 in μM) was defined as the concentration of compound that reduced the absorbance of the mock-infected control sample by 50%. The percent protection achieved by the compound in HIV-infected cells was calculated by the following formula: [formula]
(§2) whereby (ODT)HIV is the optical density measured with a given concentration of the test compound in HIV-infected cells; (ODC)HIV is the optical density measured for the control untreated HIV-infected cells; (ODC)MOCK is the optical density measured for the control untreated mock-infected cells; all optical density values were determined at 540 nm. The dose achieving 50% protection according to the above formula was defined as the 50% inhibitory concentration (IC50 in μM). The ratio of CC50 to IC50 was defined as the selectivity index (SI).
For orientation: Protection from cytopathic effect is a common read-out in antiviral testing.

Data set [1] is described as follows: Cytotoxicity in mock-infected MT-4 cells (MTT). Particulars: human. As to the method:
as §1, §2

Another data set relates to mock-infected MT-4 cells. Briefly: Cytotoxicity in mock-infected MT-4 cells (MTT). As to the method:
as §1, §2

Setting [2] is: Human immunodeficiency virus 1, MT4.

For `CN(C)CCNc1nc(Cc2c(Cl)cccc2Cl)nc(Nc2ccc(C#N)cc2)n1` [Compound 29], the IC50 with HIV-1 was 0.05 µM.
In data set [1] (mock-infected MT-4 cells), `CN(C)C=Nc1nc(Cc2c(Cl)cccc2Cl)nc(Nc2ccc(C#N)cc2)n1` [Compound 62, 4-[[4-[(2,6-dichlorophenyl)methyl]-6-[[(dimethylamino)methylene]amino]-1,3,5-triazin-2-yl]amino]benzonitrile] had a cytotoxic concentration (CC50) greater than 100 µM.
For `N#Cc1ccc(Nc2nc(N)nc(C(CC3CC3)c3c(Cl)cccc3Cl)n2)cc1` (racemic) [Compound 61], the IC50 with HIV-1 stood at 6.9 µM. In the data set with mock-infected MT-4 cells, this compound returned a CC50 of 53.4 µM.
In the case of `CC(C)NC(=O)Nc1nc(Cc2c(Cl)cccc2Cl)nc(Nc2ccc(C#N)cc2)n1` [Compound 6, N-[4-[(4-cyanophenyl)amino]-6-[(2,6-dichlorophenyl)methyl]-1,3,5-triazin-2-yl]-N′-(1-methylethyl)urea], the CC50 in data set [1] (mock-infected MT-4 cells) was greater than 100 µM.
Take `CCOc1cccc(Cc2nc(N)nc(Nc3ccc(C#N)cc3)n2)c1` [Compound 48]: 0.074 µM corresponded to half-maximal inhibition in the data set with HIV-1 (IC50). The compound also gave a CC50 in the data set with mock-infected MT-4 cells greater than 20 µM.
Taken in the same sequence, the figures for `CC(=N)Nc1nc(Cc2c(Cl)cccc2Cl)nc(Nc2ccc(C#N)cc2)n1` [Compound 28] were 0.003 µM and greater than 100 µM.
In the case of `N#Cc1ccc(Nc2nc(Cc3c(Cl)cccc3Cl)nc(NC(CCO)C(N)=O)n2)cc1` (racemic) [Compound 34, (±)-2-[[4-[(4-cyanophenyl)amino]-6-[(2,6-dichlorophenyl)amino]-6-[(2,6-dichlorophenyl)methyl]-1,3,5-triazin-2-yl]amino-4-hydroxybutanamide], the IC50 in the data set on HIV-1 turned out to be 0.057 µM. The compound also yielded a CC50 in the data set on mock-infected MT-4 cells of 42.3 µM.
In data set [1] (mock-infected MT-4 cells), `N#Cc1ccc(Nc2nc(Cc3c(Cl)cccc3Cl)nc(NCC(N)=O)n2)cc1` [Compound 14, [N-[4-[(4-cyanophenyl)amino]-6-[(2,6-dichlorophenyl)methyl]-1,3,5-triazin-2-yl]]aminoacetamide] gave a CC50 of 9.1 µM.
On the same count and under the same terms, as for `N#Cc1ccc(Nc2nc(Cc3c(Cl)cccc3Cl)nc(NCC(=O)O)n2)cc1` [Compound 16, N-[4-[(4-cyanophenyl)amino]-6-[(2,6-dichlorophenyl)methyl]-1,3,5-triazin-2-yl]glycine], the figure is 79.9 µM; as for `N#Cc1ccc(Nc2nc(Cc3c(Cl)cccc3Cl)nc(NC(=N)N)n2)cc1` [Compound 20, N-[4-[(4-cyanophenyl)amino]-6-[(2,6-dichlorophenyl)methyl]-1,3,5-triazin-2-yl]-guanidine], 4.3 µM; as for `N#Cc1ccc(Nc2nc(Cc3c(Cl)cccc3Cl)nc(NN)n2)cc1` [Compound 15, 4-[[4-[(2,6-dichlorophenyl)methyl]-6-hydrazino-1,3,5-triazin-2yl]amino]benzonitrile], 44.6 µM.
For the compound `COC(=O)CN(c1ccc(C#N)cc1)c1nc(N)nc(Cc2c(Cl)cccc2Cl)n1` [Compound 39], half-maximal inhibition with HIV-1 (setting [2]) (IC50) required 0.078 µM. Also, the CC50 in data set [1] was greater than 20 µM.
`CN(C)c1nc(Cc2c(Cl)cccc2Cl)nc(N(c2ccc(C#N)cc2)c2ccc(C#N)cc2)n1` [Compound 38, 4,4′-[[4-[(2,6-dichlorophenyl)methyl]-6-(dimethylamino)-1,3,5-triazin-2-yl]imino]bisbenzonitrile] returned a CC50 in data set [1] (mock-infected MT-4 cells) greater than 100 µM.
Same read-out and setting: the result for `N#Cc1ccc(Nc2nc(N)nc(Cc3c(Cl)cccc3Cl)n2)cc1` [Compound 1, 4-[[4-amino-6-[(2,6-dichlorophenyl)methyl]-1,3,5-triazin-2-yl]amino]benzonitrile] reads greater than 100 µM.
Same read-out and setting: as for `NC(=O)c1ccc(Nc2nc(N)nc(Cc3c(Cl)ccc4[nH]ccc34)n2)cc1` [Compound 9, 4-[[4-amino-6-[(5-chloro-1H-indol-4-yl)methyl]-1,3,5-triazin-2-yl]amino]benzamide], the figure is 54.4 µM.
As to `N#Cc1ccc(Nc2nc(Cc3c(Cl)cccc3Cl)nc(NO)n2)cc1` [Compound 33, 4-[[4-[(2,6-dichlorophenyl)methyl]-6-(hydroxyamino)-1,3,5-triazin-2-yl]amino]benzonitrile], the half-maximal cytotoxic concentration (CC50) in data set [1] (mock-infected MT-4 cells) came out at 14.1 µM.
Compound `N#Cc1ccc(Nc2nc(Cc3c(Cl)cccc3Cl)nc(NCCCNC(N)=O)n2)cc1` [Compound 23, N-[3-[[4-[(4-cyanophenyl)amino]-6-[(2,6-dichlorophenyl)methyl]-1,3,5-triazin-2-yl]amino]propyl]urea] displayed a half-maximal cytotoxic concentration (CC50) in data set [1] (mock-infected MT-4 cells) of 36.7 µM.
`COc1cccc(Cc2nc(N)nc(Nc3ccc(C#N)cc3)n2)c1` [Compound 47] returned an IC50 in the data set with HIV-1 of 0.082 µM. This compound gave a CC50 in the data set with mock-infected MT-4 cells greater than 20 µM.
For the compound `N#Cc1ccc(Nc2nc(Cc3c(Cl)cccc3Cl)nc(NCC(O)CO)n2)cc1` (racemic) [Compound 26, (±)-4-[[4-[(2,6-dichlorophenyl)methyl]-6-[(2,3-dihydroxypropyl)amino]-1,3,5-triazin-2-yl]amino]benzonitrile], the IC50 in the data set on HIV-1 (setting [2]) stood at 0.068 µM. This compound showed a CC50 in data set [1] (mock-infected MT-4 cells) of 59.7 µM.
`CC(=O)Nc1nc(Cc2c(Cl)cccc2Cl)nc(Nc2ccc(C#N)cc2)n1` [Compound 22, N-[4-[(4-cyanophenyl)amino]-6-[(2,6-dichlorophenyl)methyl]-1,3,5-triazin-2-yl]-acetamide] yielded a CC50 in data set [1] (mock-infected MT-4 cells) greater than 100 µM.
`N#Cc1ccc(Nc2nc(N)nc(Cc3c(Cl)ccc4[nH]ccc34)n2)cc1` [Compound 8, 4-[[4-amino-6-[(5-chloro-1H-indol-4-yl)methyl]-1,3,5-triazin-2-yl]amino]benzonitrile] yielded a CC50 in data set [1] (mock-infected MT-4 cells) of 14.4 µM.
